{"source": "patent US20040166079A1", "about": "“N-Lauroyl amino acid composition for slimming the human body” (priority 2003, published 2004)", "key": {"[1]": {"target": "T1, human recombinant MMP-9 (Homo sapiens, UniProt P14780)", "T1 construct": "purchased CALBIOCHEM PF024", "T1 sequence (P14780 107-707 limits assumed)": "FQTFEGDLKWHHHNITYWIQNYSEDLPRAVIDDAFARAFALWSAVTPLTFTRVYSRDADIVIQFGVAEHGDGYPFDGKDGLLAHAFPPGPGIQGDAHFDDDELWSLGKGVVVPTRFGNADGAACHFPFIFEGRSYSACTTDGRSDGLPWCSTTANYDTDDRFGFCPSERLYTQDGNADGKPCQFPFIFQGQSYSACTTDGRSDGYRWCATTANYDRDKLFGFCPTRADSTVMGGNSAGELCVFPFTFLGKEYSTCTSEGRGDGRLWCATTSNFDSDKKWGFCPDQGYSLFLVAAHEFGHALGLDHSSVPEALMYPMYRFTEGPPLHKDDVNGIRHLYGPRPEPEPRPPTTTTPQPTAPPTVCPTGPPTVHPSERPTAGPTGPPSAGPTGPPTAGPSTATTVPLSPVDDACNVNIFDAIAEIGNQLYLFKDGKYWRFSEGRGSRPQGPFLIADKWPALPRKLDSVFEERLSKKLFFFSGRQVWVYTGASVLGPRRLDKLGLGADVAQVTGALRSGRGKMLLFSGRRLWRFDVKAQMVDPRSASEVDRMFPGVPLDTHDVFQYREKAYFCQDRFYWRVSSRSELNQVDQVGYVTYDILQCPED", "experiment": "Measurement of the activity of metalloproteinase MMP-9 (DQ-gelatin fluorescence)", "type": "biochemical", "conditions": "incubation concentration 0.0018 % DE; relative to the control", "method": "(§1) The objective of this test is to evaluate the inhibitory capacity of a product on the enzymatic activity of MMP-2 and MMP-9. This test is based on an enzymatic reaction between purified MMP-2 or MMP-9 and a specific substrate containing a chromophore. The degradation of the chromogenic substrate by the enzyme leads to the production of fluorescence monitored by fluorimetry.\n(§2) (i)—A human recombinant MMP-9 (CALBIOCHEM, PF024) is incubated, at 0.05 μg/ml, in the presence of the product and the chromogenic substrate, DQ-gelatin conjugated with fluorescein (MOLECULAR PROBE, D12054) at 10 μg/ml. The reaction mixture is incubated overnight at room temperature, protected from light. The quantity of DQ-gelatin degraded is measured by fluorescence (Ex: 355 nm; Em: 460 nm).\n(§3) The reactivity of the enzymatic system is systematically monitored for the measurement of the effect of a metalloproteinase inhibitor, 1,10-phenanthroline. The results are presented in the following table, as a percentage inhibition of the enzymatic activity of MMP-2 and MMP-9 relative to the control."}, "[2]": {"target": "T2, human recombinant MMP-2 (Homo sapiens, UniProt P08253)", "T2 construct": "purchased CALBIOCHEM PF023", "T2 sequence (P08253 110-660)": "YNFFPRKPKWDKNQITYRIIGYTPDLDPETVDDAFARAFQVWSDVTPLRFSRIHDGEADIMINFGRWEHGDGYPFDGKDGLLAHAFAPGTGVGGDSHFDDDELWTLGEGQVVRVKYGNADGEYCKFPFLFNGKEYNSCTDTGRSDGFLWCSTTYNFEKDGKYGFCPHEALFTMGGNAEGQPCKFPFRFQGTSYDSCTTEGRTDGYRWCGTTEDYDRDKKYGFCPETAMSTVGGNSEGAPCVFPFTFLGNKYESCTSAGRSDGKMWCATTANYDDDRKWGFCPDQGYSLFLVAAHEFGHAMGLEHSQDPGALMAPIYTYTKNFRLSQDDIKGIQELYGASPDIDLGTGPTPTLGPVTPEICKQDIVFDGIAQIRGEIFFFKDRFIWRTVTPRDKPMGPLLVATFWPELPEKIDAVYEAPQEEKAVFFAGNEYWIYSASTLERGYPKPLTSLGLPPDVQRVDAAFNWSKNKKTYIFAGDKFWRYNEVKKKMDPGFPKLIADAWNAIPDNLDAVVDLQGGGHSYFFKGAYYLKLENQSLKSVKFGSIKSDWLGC", "experiment": "Measurement of the activity of metalloproteinase MMP-2 (DQ-gelatin fluorescence)", "type": "biochemical", "conditions": "incubation concentration 0.0018 % DE; relative to the control", "method": "as §1\nas §2, with “(ii)—A” for “(i)—A”, “MMP-2” for “MMP-9”, “PF023)” for “PF024)”, “0.1” for “0.05”\nas §3"}, "[3]": {"target": "T3, α2-adrenergic receptors (Homo sapiens, UniProt P08913)", "T3 construct": "adrenergic receptors found at the surface of the adipocytes; endogenous in cells; host or cells: human adipocytes from subcutaneous abdominal adipose tissue of women", "T3 sequence (P08913 1-465)": "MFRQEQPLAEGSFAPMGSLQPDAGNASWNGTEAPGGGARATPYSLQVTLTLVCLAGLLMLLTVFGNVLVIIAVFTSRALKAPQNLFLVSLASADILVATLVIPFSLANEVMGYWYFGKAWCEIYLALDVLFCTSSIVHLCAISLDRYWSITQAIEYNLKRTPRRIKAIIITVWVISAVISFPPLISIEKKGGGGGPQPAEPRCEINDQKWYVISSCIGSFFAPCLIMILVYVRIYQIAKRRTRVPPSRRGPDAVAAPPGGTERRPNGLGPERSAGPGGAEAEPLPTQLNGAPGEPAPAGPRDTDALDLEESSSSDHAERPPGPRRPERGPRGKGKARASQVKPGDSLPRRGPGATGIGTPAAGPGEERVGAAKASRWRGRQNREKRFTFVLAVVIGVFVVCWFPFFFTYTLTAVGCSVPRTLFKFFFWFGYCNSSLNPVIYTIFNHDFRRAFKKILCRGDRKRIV", "experiment": "Involvement of α2-adrenergic receptors in lipolytic activity: fatty acid assay in human adipocytes with brimonidine", "type": "cell-based", "source_text": "It involves determining, in an “in vitro” model of isolated human adipocytes, the involvement of the α2- and/or β-adrenergic receptors on the lipolytic activity of the test product. Lipolysis is indeed under the control of the adrenergic receptors found at the surface of the adipocytes. Two types of receptors coexist:\nA lipolytic product can call into play these receptors either by stimulating the β-adrenergic receptors (agonist), or by inhibiting the α2-adrenergic receptors (antagonist). The method described consists in incubating the product in the presence of human adipocytes in suspension, followed by the measurement of the lipolytic activity by assaying fatty acids. The adipocytes are incubated in the presence of pharmacological agents, α2-adrenergic agonists or β-adrenergic antagonists, known to inhibit lipolysis. The trial consists in studying the effect of the product on the inhibition of lipolysis induced by these pharmacological agents.\nThe test is carried out using human adipocytes isolated and prepared as a cellular suspension. The adipocytes are isolated from the subcutaneous abdominal adipose tissue recovered during plastic surgery operations (abdominal plastic surgery operations) performed on women. The cells are isolated from fresh tissue. To isolate the cells, the adipose tissue is isolated and dissociated by the action of a collagenase (SIGMA™, 1 mg/ml, 30 minutes at 37° C., gentle stirring). Collagenase digests the connective tissue present in the adipose tissue. […]\nThe product is incubated with the cells in suspension for two hours at 37° C. (250 μl of product+250 μl of adipocyte suspension). in the presence of an α2-adrenergic agonist: brimonidine at 10^−9 M (concentration previously determined to inhibit basal lipolysis by about 50%), and The supernatant media are collected. […]"}, "[4]": {"target": "T4, hyaluronidase (SIGMA), purified from bovine testicles (Bos taurus, UniProt Q2YDK3)", "T4 construct": "purified from bovine testicles; purchased SIGMA; host or cells: bovine testicles", "T4 sequence (Q2YDK3 36-553)": "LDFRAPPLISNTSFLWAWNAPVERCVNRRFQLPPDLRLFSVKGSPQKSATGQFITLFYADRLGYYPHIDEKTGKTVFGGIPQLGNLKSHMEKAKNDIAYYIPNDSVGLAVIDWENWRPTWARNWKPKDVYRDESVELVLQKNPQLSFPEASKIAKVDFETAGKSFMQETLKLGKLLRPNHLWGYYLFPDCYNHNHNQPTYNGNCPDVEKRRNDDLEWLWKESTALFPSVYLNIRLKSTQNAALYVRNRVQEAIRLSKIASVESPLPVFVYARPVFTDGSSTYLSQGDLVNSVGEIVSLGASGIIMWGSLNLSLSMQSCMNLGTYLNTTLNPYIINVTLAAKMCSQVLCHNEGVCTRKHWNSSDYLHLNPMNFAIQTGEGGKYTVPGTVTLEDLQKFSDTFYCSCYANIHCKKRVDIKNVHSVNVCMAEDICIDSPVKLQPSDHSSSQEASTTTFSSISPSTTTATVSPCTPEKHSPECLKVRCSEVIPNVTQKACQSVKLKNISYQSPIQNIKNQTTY", "experiment": "Measurement of the activity of hyaluronidase (purified enzyme)", "type": "biochemical", "conditions": "hyaluronidase test, 60 minutes at 37° C.", "method": "The objective of this test is to measure the activity of hyaluronidase. This enzyme, which is naturally found in the skin, degrades hyaluronic acid. The study is carried out in vitro on the purified enzyme.\nThe hyaluronidase (SIGMA), purified from bovine testicles, is incubated at 0.01 U/ml in the presence of hyaluronic acid at 0.02 mg/ml, with or without test product. The incubation is carried out for 60 minutes at 37° C.\nEvaluation of the effects: After the incubation, the hyaluronic acid not degraded by the enzyme is precipitated by a 24 mM sodium acetate/79. mM acetic acid mixture (10 minutes, room temperature). The precipitate is measured by spectrophotometry at 590 nm.\nThe effect of the test products is compared to that observed in the presence of dipotassium glycyrrhizinate, a reference hyaluronidase inhibitor."}, "[5]": {"test_system": "β-adrenergic receptors", "experiment": "Involvement of β-adrenergic receptors in lipolytic activity: fatty acid assay in human adipocytes with propranolol", "type": "cell-based", "experimental": "The supernatant media are collected. The nonesterified fatty acids are assayed by spectrophotometry with the aid of a commercial kit in these supernatant media (NEFA C kit, WAKO). The assay is performed against a fatty acid calibration series.\nfor the inhibition induced by the β-adrenergic antagonist, by the use of a β-adrenergic agonist, isoprenaline."}, "[6]": {"test_system": "human adipocytes", "experiment": "Assay of the free fatty acids (lipolytic activity) in isolated human adipocytes in suspension", "type": "cell-based", "conditions": "for Free fatty acid concentration: 2 h at 37° C., mean of five assays", "source_text": "Hydrolysis of the triglycerides to nonesterified fatty acids and glycerol is called lipolysis. Triglycerides are stored in the adipocytes and constitute the fat reserve. For this reserve to diminish, which is the desired aim when slimming products are used, the triglycerides should be hydrolysed in the form of fatty acids, which in their case can be removed from the cell. Hydrolysis of the triglycerides calls into play a hormone-dependent lipase which must be phosphorylated in order to be active. The phosphorylation step uses a kinase and cAMP. An increase in the cAMP content of the adipocytes is necessary for promoting the activity of the lipase and therefore the lipolysis. The method described consists in incubating the products in the presence of human adipocytes in suspension, followed by […].\nThe test is carried out using human adipocytes isolated and prepared as a cellular suspension. The adipocytes are isolated from the subcutaneous abdominal adipose tissue recovered during plastic surgery operations (abdominal plastic surgery operations) performed on women. The cells are isolated from fresh tissue. The adipose tissue is isolated and dissociated by the action of a collagenase (SIGMA™, 1 mg/ml, 30 minutes at 37° C., gentle stirring). Collagenase digests the connective tissue present in the adipose tissue. After digestion, the cells are filtered and washed in an appropriate culture medium containing MEM medium free of phenol red, free of glutamine (SIGMA)+2.2 mg/ml of sodium bicarbonate (GIBCO)+50 IU of penicillin (BIOWHITTAKER™)+50 μg/ml of streptomycin (BIOWHITTAKER™)+1% (v/v) of L-glutamine (BIOWHITTAKER™)+0.5% of lipid-free serum albumin (SIGMA™). The adipocyte suspension is used immediately after its preparation.\nThe test products are diluted in the adipocyte culture medium. They are incubated with the cells in suspension for two hours at 37° C. (250 μl of product+250 μl of adipocyte suspension).\nAfter the incubation, the cell lysis is checked visually by the presence of a lipid layer at the surface of the cellular suspension. The supernatant media are collected. The free fatty acids are assayed by spectrophotometry using a commercial kit (NEFA™ C kit, WAKO), with reference to a fatty acid calibration series. The lypolytic activity of the products is evaluated relative to a control group incubated in the presence of adipocytes and in the absence of product. […] Five assays are performed for each of the test products which are as follows:\nThis assay is repeated by carrying out new assays at different concentrations."}, "[7]": {"conditions": "incubation concentration 0.0001 wt % DE"}, "[8]": {"conditions": "incubation concentration 0.0010 wt % DE"}}}
{"smiles": "c1cnc2c(c1)ccc1cccnc12", "note": "[1,10-Phenanthroline, 1,10-phenanthroline]", "values": [{"measurement": "MMP-9 inhibiting effect", "setting": "[1]", "result": 75, "unit": "%"}, {"measurement": "MMP-2 inhibiting effect", "setting": "[2]", "result": 25, "unit": "%"}]}
{"smiles": "Brc1c(NC2=NCCN2)ccc2nccnc12", "note": "[Brimonidine, brimonidine]", "values": [{"measurement": "Assay of the nonesterified fatty acids in the supernatant (% relative to the control)", "setting": "[3]; 10^−9 M, alone", "result": 0, "unit": "%"}, {"measurement": "inhibition at 0.001 µM", "setting": "[3]; read-out: inhibition of basal lipolysis", "result": "~50", "unit": "%"}]}
{"smiles": "CC1(C)[C@@H](O[C@H]2O[C@H](C(=O)[O-])[C@@H](O)[C@H](O)[C@H]2O[C@@H]2O[C@H](C(=O)[O-])[C@@H](O)[C@H](O)[C@H]2O)CC[C@]2(C)[C@H]3C(=O)C=C4[C@@H]5C[C@@](C)(C(=O)O)CC[C@]5(C)CC[C@@]4(C)[C@]3(C)CC[C@@H]12.[K+].[K+]", "note": "[Di K glycyrrhizinate, dipotassium glycyrrhizinate]", "values": [{"measurement": "Percentage inhibition of hyaluronidase activity", "setting": "[4]; incubation concentration 0.001 % DE", "result": 20, "unit": "%"}, {"measurement": "Percentage inhibition of hyaluronidase activity", "setting": "[4]; incubation concentration 0.1 % DE", "result": 45, "unit": "%"}]}
{"smiles": "CC(C)NCC(O)c1ccc(O)c(O)c1", "note": "(centres unmarked) [Isoprenaline, isoprenaline]", "values": [{"measurement": "Assay of the nonesterified fatty acids in the supernatant (% relative to the control)", "setting": "[5]; 10^−5 M + propanolol 10^−7 M", "result": 170, "unit": "%"}]}
{"smiles": "CCCCCCCCCCCC(=O)N(C)CC(=O)O", "note": "[N-Lauroylsarcosine]", "values": [{"measurement": "Free fatty acid concentration", "setting": "[6]; [7]", "result": "26.32 ± 0.68", "unit": "µM"}, {"measurement": "Lipolytic activity (compared with the control = 100)", "setting": "[6]; [7]", "result": 228}, {"measurement": "Free fatty acid concentration", "setting": "[6]; [8]", "result": "28.82 ± 6.11", "unit": "µM"}, {"measurement": "Lipolytic activity (compared with the control = 100)", "setting": "[6]; [8]", "result": 250}]}
{"smiles": "Cc1ccc(N(CC2=NCCN2)c2cccc(O)c2)cc1", "note": "[Phentolamine, phentolamine]", "values": [{"measurement": "Assay of the nonesterified fatty acids in the supernatant (% relative to the control)", "setting": "[3]; 10^−7 M + brimonidine 10^−9 M", "result": 79, "unit": "%"}]}
{"smiles": "CC(C)NCC(O)COc1cccc2ccccc12", "note": "(centres unmarked) [Propanolol, propranolol]", "values": [{"measurement": "Assay of the nonesterified fatty acids in the supernatant (% relative to the control)", "setting": "[5]; 10^−7 M, alone", "result": 86, "unit": "%"}, {"measurement": "inhibition of basal lipolysis", "setting": "[5]; at 10^−7 M, concentration previously determined", "result": "about 50%"}]}
